# Where two headings read alike, the source gives them in different places.
# Assays:
# human DGKα = target: T1, human DGKα (Homo sapiens, UniProt P23743); assay: DGKα LIPGLO assay (extruded liposome substrate), in vitro DGK inhibition; type: biochemical; conditions: read-out: DGKa LIPGLO IC50
# T1 construct: TVMV protease cleavage site (C); Hexa-His (C); made in house; host or cells: Sf9 insect cells (baculovirus, Bac-to-Bac)
# Human venous whole blood = assay: Human whole blood IFN-γ assay; type: cell-based; conditions: human whole blood, read-out: INFg Whole Blood Normalized Agonist EC50;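 note: blood from healthy donors exposed to compound for 1 h before stimulation with anti-CD3 and anti-CD28 at 1 µg/mL each, IFN-γ quantified in supernatant by AlphaLISA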
# Description: Human Whole Blood IFN-γ Assay
# Human venous whole blood (22.5 μL per well), obtained from healthy donors, was pre-treated with compounds for one hour at 37° C. in a humidified 95% air/5% CO2 incubator. The blood was stimulated with 2.5 μL anti-human CD3 and anti-CD28 mAb at a final concentration of 1 μg/mL each for 24 hours at 37° C. IFN-γ in the supernatants was measured using AlphLISA kit (Cat # AL217).
# human DGKζ = target: T2, human DGKζ (Homo sapiens, UniProt Q13574); assay: DGKζ LIPGLO assay (extruded liposome substrate), in vitro DGK inhibition; type: biochemical; conditions: read-out: DGKz LIPGLO IC50
# T2 construct: TVMV protease cleavage site (C); Hexa-His (C); made in house; host or cells: Sf9 insect cells (baculovirus, Bac-to-Bac)
# T2 sequence (Q13574 with tags, fused parts or gaps isoform Q13574-4): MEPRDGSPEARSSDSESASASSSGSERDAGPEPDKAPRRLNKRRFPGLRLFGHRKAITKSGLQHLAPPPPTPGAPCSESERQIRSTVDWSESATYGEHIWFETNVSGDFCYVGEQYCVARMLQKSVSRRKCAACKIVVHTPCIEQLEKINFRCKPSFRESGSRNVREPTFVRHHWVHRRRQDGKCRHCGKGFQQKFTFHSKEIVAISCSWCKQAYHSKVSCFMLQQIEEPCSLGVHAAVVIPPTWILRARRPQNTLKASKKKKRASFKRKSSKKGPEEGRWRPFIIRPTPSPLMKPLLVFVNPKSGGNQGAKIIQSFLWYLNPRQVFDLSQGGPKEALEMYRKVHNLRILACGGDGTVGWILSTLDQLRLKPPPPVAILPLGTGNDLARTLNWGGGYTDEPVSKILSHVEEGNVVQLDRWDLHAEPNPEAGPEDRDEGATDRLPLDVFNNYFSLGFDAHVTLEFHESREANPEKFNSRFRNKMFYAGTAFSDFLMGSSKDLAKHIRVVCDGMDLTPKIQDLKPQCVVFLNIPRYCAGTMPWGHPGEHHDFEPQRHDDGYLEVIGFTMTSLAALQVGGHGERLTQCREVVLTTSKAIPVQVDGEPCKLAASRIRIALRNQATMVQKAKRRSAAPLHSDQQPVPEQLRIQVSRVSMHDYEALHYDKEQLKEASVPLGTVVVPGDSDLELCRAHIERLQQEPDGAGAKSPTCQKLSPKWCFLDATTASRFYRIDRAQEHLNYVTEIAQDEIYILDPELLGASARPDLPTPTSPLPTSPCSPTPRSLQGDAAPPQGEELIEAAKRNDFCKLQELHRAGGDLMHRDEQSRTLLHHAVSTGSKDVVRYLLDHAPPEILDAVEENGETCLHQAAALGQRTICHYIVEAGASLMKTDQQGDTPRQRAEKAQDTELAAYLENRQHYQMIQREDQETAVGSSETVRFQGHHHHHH
# [1] = normalized to 3 μM reference compound with anti-CD3 plus anti-CD28 as 100% activation
# [2] = Homo sapiens, 24 h, normalized to 3 μM reference compound with anti-CD3 plus anti-CD28 as 100% activation
# [3] = anti-CD3 plus anti-CD28, 24 hours, 3 μM reference compound = 100% activation
# [4] = Homo sapiens, 24 h, anti-CD3 plus anti-CD28, 24 hours, 3 μM reference compound = 100% activation
# T1 sequence (P23743 with tags, fused parts or gaps): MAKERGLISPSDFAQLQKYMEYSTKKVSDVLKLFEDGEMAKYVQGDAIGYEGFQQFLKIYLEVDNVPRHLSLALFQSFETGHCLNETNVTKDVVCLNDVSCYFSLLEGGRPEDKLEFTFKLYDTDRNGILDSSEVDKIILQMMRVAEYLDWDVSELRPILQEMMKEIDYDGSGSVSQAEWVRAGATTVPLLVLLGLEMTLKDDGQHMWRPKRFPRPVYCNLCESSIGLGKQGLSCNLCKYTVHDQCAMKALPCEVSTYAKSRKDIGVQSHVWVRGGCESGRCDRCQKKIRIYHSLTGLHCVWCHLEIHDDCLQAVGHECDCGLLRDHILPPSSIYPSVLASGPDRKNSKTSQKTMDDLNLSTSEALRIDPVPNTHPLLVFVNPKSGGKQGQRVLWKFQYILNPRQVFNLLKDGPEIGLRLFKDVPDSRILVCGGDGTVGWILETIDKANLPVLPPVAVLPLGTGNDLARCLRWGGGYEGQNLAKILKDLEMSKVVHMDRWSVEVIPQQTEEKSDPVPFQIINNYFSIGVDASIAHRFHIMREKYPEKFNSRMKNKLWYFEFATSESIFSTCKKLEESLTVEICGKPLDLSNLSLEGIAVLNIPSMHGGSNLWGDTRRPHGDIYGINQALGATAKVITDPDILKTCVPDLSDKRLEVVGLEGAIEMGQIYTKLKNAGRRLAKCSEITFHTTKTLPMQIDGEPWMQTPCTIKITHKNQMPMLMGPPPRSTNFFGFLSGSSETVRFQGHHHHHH
SMILES,IC50 (human DGKα; liposome (LIPGLO) assay),EC50 (Human venous whole blood; [1]),IC50 (human DGKζ; liposome (LIPGLO) assay),EC50 (Human venous whole blood; [2]),IC50 (human DGKα; DGKα liposome (LIPGLO) assay),EC50 (Human venous whole blood; [3]),IC50 (human DGKζ; DGKζ liposome (LIPGLO) assay),EC50 (Human venous whole blood; [4])
"CC(c1ccc2c(c1)OC(F)(F)O2)N1C[C@H](C)N(c2cc(=O)n(C)c3ccc(C#N)nc23)C[C@H]1C (single isomer, unassigned) [Example 655]",4.2 µM,6.6 µM,1.3 µM,–,–,–,–,–
"Cc1ncc(C(c2ccc(F)cc2)N2C[C@H](C)N(c3cc(=O)n(C)c4ccc(C#N)nc34)C[C@H]2C)cn1 (single isomer, unassigned) [Example 406]",2.4 µM,–,2.8 µM,11 µM,–,–,–,–
C[C@@H]1CN(c2cc(=O)n(C)c3ccc(C#N)nc23)[C@@H](C)CN1Cc1ccc(P(C)(C)=O)cc1 [Example 1289],51 µM,–,130 µM,20 µM,–,–,–,–
"CC(c1cc(C(C)(C)C)on1)N1C[C@H](C)N(c2cc(=O)n(C)c3ccc(C#N)nc23)C[C@H]1C (single isomer, unassigned) [Example 1283]",4.1 µM,–,7.6 µM,4 µM,–,–,–,–
"CCC(c1cc(OC(F)(F)F)ccc1F)N1C[C@H](CC)N(c2cc(=O)n(C)c3ccc(C#N)nc23)C[C@H]1C (single isomer, unassigned) [Example 1381]",19 µM,20 µM,2.1 µM,–,–,–,–,–
"Cc1ccc(C)c(C(C)N2CCN(c3c(C#N)c(=O)n(C)c4ccc(C#N)nc34)C[C@H]2C)c1 (single isomer, unassigned) [Example 977]",–,–,–,–,48 µM,4.9 µM,1 µM,–
"C[C@@H]1CN(c2cc(=O)n(C)c3ccc(C#N)nc23)[C@@H](C)CN1C(c1ccc(F)cc1)c1csc(C(F)(F)F)n1 (single isomer, unassigned) [Example 1334]",0.11 µM,0.26 µM,0.14 µM,–,–,–,–,–
"CC(c1ccc(F)cc1)N1CCN(c2c(C#N)c(=O)n(C)c3ccc(C#N)nc23)C[C@H]1C (single isomer, unassigned) [Example 959]",–,–,–,–,2.4 µM,5.4 µM,5.9 µM,–
"CCc1ccc(C(c2cccc(Cl)c2)N2C[C@H](C)N(c3cc(=O)n(C)c4ccc(C#N)nc34)C[C@H]2C)nc1 (single isomer, unassigned) [Example 355]",0.89 µM,–,0.74 µM,0.34 µM,–,–,–,–
"C[C@@H]1CN(c2cc(=O)n(C)c3ccc(C#N)nc23)[C@@H](C)CN1C(c1ccc(F)cc1)c1nc(C(C)(C)C)co1 (single isomer, unassigned) [Example 779]",–,–,–,–,0.11 µM,–,0.012 µM,0.01 µM
"C[C@@H]1CN(c2c(C#N)c(=O)n(C)c3ccc(C#N)nc23)CCN1C(c1ccc(F)cc1)c1nc(C2CC2)no1 (single isomer, unassigned) [Example 1029]",0.45 µM,3.6 µM,2.1 µM,–,–,–,–,–
"C[C@@H]1CN(c2cc(=O)n(C)c3ccc(C#N)nc23)[C@@H](C)CN1C(Cc1nc(C2CC2)no1)c1ccc(F)cc1 (single isomer, unassigned) [Example 1327]",0.2 µM,0.18 µM,0.29 µM,–,–,–,–,–
"Cc1ccc(C(c2cccc(F)n2)N2C[C@H](C)N(c3cc(=O)n(C)c4ccc(C#N)nc34)C[C@H]2C)cc1 (single isomer, unassigned) [Example 479]",0.91 µM,2.1 µM,1.9 µM,–,–,–,–,–
Cc1ccc(C(c2ccc(C)cc2)N2C[C@@H](C)N(c3cc(=O)n(C)c4ccc(C#N)nc34)C[C@@H]2CO)cc1 [Example 1173],10 µM,–,0.98 µM,1.4 µM,–,–,–,–
C[C@@H]1CN(c2c(C#N)c(=O)n(C)c3ccc(C#N)nc23)CCN1Cc1ccc(F)cc1Cl [Example 993],–,–,–,–,1.3 µM,–,3.9 µM,3.8 µM
"CC[C@@H]1CN(c2cc(=O)n(C)c3ccc(C#N)nc23)[C@@H](C)CN1Cc1ccc(OC(F)F)cc1 [Example 1330, 8-((2S,5R)-4-(4-(difluoromethoxy)benzyl)-5-ethyl-2-methylpiperazin-1-yl)-5-methyl-6-oxo-5,6-dihydro-1,5-naphthyridine-2-carbonitrile]",0.044 µM,–,0.38 µM,1.5 µM,–,–,–,–

SMILES,IC50 (human DGKα; liposome (LIPGLO) assay),EC50 (Human venous whole blood; [1]),IC50 (human DGKζ; liposome (LIPGLO) assay),EC50 (Human venous whole blood; [2]),IC50 (human DGKα; DGKα liposome (LIPGLO) assay),EC50 (Human venous whole blood; [3]),IC50 (human DGKζ; DGKζ liposome (LIPGLO) assay),EC50 (Human venous whole blood; [4])
"C[C@@H]1CN(c2cc(=O)n(C)c3ccc(C#N)nc23)[C@@H](C)CN1C(c1ccc(F)cc1)c1nnc(C2CC2)[nH]1 (single isomer, unassigned) [Example 767]",–,–,–,–,0.44 µM,2.3 µM,6.6 µM,–
"CC[C@@H]1CN(c2cc(=O)n(C)c3ccc(C#N)nc23)[C@@H](C)CN1C(C)c1ccc(Cl)cc1F (single isomer, unassigned) [Example 1352]",0.12 µM,–,0.016 µM,0.028 µM,–,–,–,–
"CC(c1cccc2ncccc12)N1C[C@H](C)N(c2cc(=O)n(C)c3ccc(C#N)nc23)C[C@H]1C (single isomer, unassigned) [Example 639]",98 µM,20 µM,18 µM,–,–,–,–,–
"COC[C@H]1CN(c2cc(=O)n(C)c3ccc(C#N)nc23)[C@H](C)CN1C(c1ccc(F)cc1)c1ccc(F)cc1 [Example 1183, 8-((2R,5R)-4-(bis(4-fluorophenyl)methyl)-5-(methoxymethyl)-2-methylpiperazin-1-yl)-5-methyl-6-oxo-5,6-dihydro-1,5-naphthyridine-2-carbonitrile]",> 250 µM,–,8.9 µM,9.2 µM,–,–,–,–
"CC(c1ccc(OC(F)(F)F)cc1)N1C[C@H](CO)N(c2cc(=O)n(C)c3ccc(C#N)nc23)C[C@H]1C (single isomer, unassigned) [Example 1420]",0.82 µM,1.7 µM,1.7 µM,–,–,–,–,–
"C[C@@H]1CN(c2c(C#N)c(=O)n(C)c3ccc(C#N)nc23)CCN1C(c1ccccc1)c1cc(F)cc(F)c1 (single isomer, unassigned) [Example 875]",–,–,–,–,1.7 µM,–,0.51 µM,3.1 µM
"C[C@@H]1CN(c2c(C#N)c(=O)n(C)c3ccc(C#N)nc23)[C@@H](C)CN1C(c1ccc(F)cc1)c1csc(C2CC2)n1 (single isomer, unassigned) [Example 858]",–,–,–,–,0.48 µM,1.7 µM,0.15 µM,–
Cc1ccc(C(c2cccc(F)c2)N2C[C@H](C)N(c3cc(=O)n(C)c4ccc(C#N)nc34)C[C@H]2CO)nc1 (stereo partly drawn) [Example 1154],8.1 µM,–,50 µM,2.4 µM,–,–,–,–
COC(=O)c1ccc(C(C)N2CCN(c3c(C#N)c(=O)n(C)c4ccc(C#N)nc34)C[C@H]2C)cc1 (stereo partly drawn) [Example 981],–,–,–,–,2.1 µM,–,28 µM,13 µM
"C[C@@H]1CN(c2cc(=O)n(C)c3ccc(C#N)nc23)[C@@H](C)CN1C(c1ccc(Cl)cc1)c1ccncn1 (single isomer, unassigned) [Example 396]",1.3 µM,–,3.6 µM,0.19 µM,–,–,–,–
"CC(c1ccc(OC(F)(F)F)cc1)N1C[C@H](C)N(c2c(C#N)c(=O)n(C)c3ccc(C#N)nc23)C[C@H]1C (single isomer, unassigned) [Example 802]",–,–,–,–,1.3 µM,10 µM,24 µM,–
CC[C@H]1CN(C(c2ccc(F)cc2)c2ccc(F)cc2)[C@H](C)CN1c1cc(=O)n(C)c2ccc(C#N)nc12 [Example 1118],0.4 µM,–,0.58 µM,0.36 µM,–,–,–,–
"[2H]C(CC)(c1ccc(F)cc1)N1C[C@H](C)N(c2cc(=O)n(C)c3ccc(C#N)nc23)C[C@H]1C (single isomer, unassigned) [Example 575]",0.18 µM,0.36 µM,1.6 µM,–,–,–,–,–
"C[C@@H]1CN(c2cc(=O)n(C)c3ccc(C#N)nc23)[C@@H](C)CN1C(c1ccc(Cl)cc1)c1ccccn1 (mixture of isomers) [Example 403, 8-((2S,5R)-4-((4-chlorophenyl)(pyridin-2-yl)methyl)-2,5-dimethylpiperazin-1-yl)-5-methyl-6-oxo-5,6-dihydro-1,5-naphthyridine-2-carbonitrile]",0.14 µM,–,0.46 µM,0.17 µM,–,–,–,–
CC[C@H]1CN(C(c2cccc(F)c2)c2ccc(OC)cn2)[C@H](CC)CN1c1cc(=O)n(C)c2ccc(C#N)nc12 (stereo partly drawn) [Example 1048],0.083 µM,–,0.15 µM,0.19 µM,–,–,–,–

# — patent US10669272B2, “Substituted naphthyridinone compounds useful as T cell activators” (BRISTOL-MYERS SQUIBB COMPANY, priority 2018, dated 2020)
